{"source": "patent US20210246128A1", "about": "“BICYCLE TOPOISOMERASE I INHIBITING COMPOUNDS, PROCESS FOR PREPARATION AND USE THEREOF” (Council of Scientific & Industrial Research, priority 2018, published 2021)", "key": {"[1]": {"test": "Lipophilicity assay (octanol/buffer Log D)", "conditions": "n-octanol/sodium phosphate buffer, pH 7.4"}, "[2]": {"test": "Caco-2 permeability (21 day culture of Caco-2 cell monolayer)", "assay_type": "in vitro ADME", "conditions": "human; for recovery at 120 min, 10 μM: Caco-2, pH 7.4, Caco-2", "method_in_brief": "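Caco-2 monolayers grown 21 days, used when TEER >230 ohm·cm2; compound at 10 μM final in HBSS pH 7.4 dosed apical or basal, receiver HBSS with 2% BSA, sampled at 120 min at 37° C. Bidirectional transport quantified by LC-MS/MS against single-point calibration.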"}, "[3]": {"target": "T1, human TopI-DNA cleavage complexes (TopIcc) (Homo sapiens, UniProt P11387)", "T1 sequence (P11387 1-765)": "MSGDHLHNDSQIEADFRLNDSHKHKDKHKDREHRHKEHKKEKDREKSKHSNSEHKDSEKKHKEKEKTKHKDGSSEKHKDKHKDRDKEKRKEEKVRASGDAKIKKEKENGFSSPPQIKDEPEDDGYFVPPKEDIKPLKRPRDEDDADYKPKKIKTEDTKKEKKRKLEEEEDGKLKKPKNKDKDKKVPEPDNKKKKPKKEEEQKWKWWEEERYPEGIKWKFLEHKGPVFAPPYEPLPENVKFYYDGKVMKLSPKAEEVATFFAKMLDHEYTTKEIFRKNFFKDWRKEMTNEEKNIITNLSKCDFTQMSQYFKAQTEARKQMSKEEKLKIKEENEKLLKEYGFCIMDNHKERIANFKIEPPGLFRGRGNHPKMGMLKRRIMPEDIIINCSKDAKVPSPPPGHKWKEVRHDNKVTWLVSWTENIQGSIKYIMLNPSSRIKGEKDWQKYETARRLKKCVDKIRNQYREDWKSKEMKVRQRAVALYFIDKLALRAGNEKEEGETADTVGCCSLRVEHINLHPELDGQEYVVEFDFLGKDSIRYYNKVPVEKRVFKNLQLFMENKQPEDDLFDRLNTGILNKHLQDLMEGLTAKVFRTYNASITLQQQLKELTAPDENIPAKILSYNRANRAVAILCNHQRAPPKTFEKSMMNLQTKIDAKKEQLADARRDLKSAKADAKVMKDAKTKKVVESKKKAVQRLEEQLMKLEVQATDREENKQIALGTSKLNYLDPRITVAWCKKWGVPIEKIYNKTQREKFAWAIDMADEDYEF", "test": "Plasmid DNA cleavage assay", "assay_type": "biochemical", "conditions": "compared with CPT, FIG. 3 and 4", "experimental": "Cleavage reaction and electrophoresis in agarose gel were performed as described in B. Kundu, J. Med. Chem. 2019, 62, 3428-3446. Lane 1 comprises 50 fmol of pBluescript (SK^+) supercoiled DNA. Lanes 2-9 are same as lane 1 but incubated with equal amounts (100 fmol) of HTopI at the indicated concentration of CPT or compound 24 or only DMSO.\nThe mechanism of TopI inhibition with compound 24 in the plasmid DNA cleavage assays was investigated."}}, "note": "Like-named read-outs stand apart in the source and are kept apart here."}
{"compound": "Nc1ccc(-c2ccc3ncc(-c4nnco4)c(NCCCn4ccnc4)c3c2)cn1", "note": "[Compound 24, N-(3-(1H-imidazol-1-yl)propyl)-6-(6-aminopyridin-3-yl)-3-(1,3,4-oxadiazol-2-yl)quinolin-4-amine]", "values": [{"measurement": "logD", "setting": "[1]", "value": 3.51}, {"measurement": "efflux ratio at 120 min, 10 μM", "setting": "[2]; Caco-2, pH 7.4", "value": 4.54}, {"measurement": "recovery at 120 min, 10 μM", "setting": "[2]; read-out: A to B % Recovery", "value": 77.3, "unit": "%"}, {"measurement": "recovery at 120 min, 10 μM", "setting": "[2]; read-out: B to A % Recovery", "value": 77.7, "unit": "%"}, {"measurement": "Papp A→B at 120 min, 10 μM", "setting": "[2]; pH 7.4, Caco-2, 10 μM, 120 min, read-out: Papp Apical to Basal", "value": 6.47, "unit": "×10⁻⁶ cm/s"}, {"measurement": "Papp B→A at 120 min, 10 μM", "setting": "[2]; pH 7.4, Caco-2, 10 μM, 120 min, read-out: Papp Basal to Apical", "value": 27.4, "unit": "×10⁻⁶ cm/s"}, {"measurement": "stabilisation/trapping of TopI-DNA cleavage complexes (TopIcc)", "setting": "[3]", "value": "capable of stabilising TopIcc formation like CPT"}]}
